In ChEMBL document CHEMBL1201862, “PubChem BioAssay data set” (2004):
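The compound was tested at five concentrations on cells cultured in 96-well plates, with a 48-hour exposure period. The concentration for 50% growth inhibition is given as GI50.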 Active and inactive are the calls of the source. Cut-off read from the data, not from the text of the source: active = GI50 up to about 1.1 µM and inactive = higher. Where a SMILES comes first, the peptide text is derived from it. The star is where a group is joined. Boc = CC(C)(C)OC(=O)*

Assays:
Assay in all cases: NCI-60 cell line screen, 48 h
CCRF-CEM = test system: CCRF-CEM
SK-OV-3 = test system: SK-OV-3
PC-3 = test system: PC-3
MOLT-4 = test system: MOLT-4
786-0 = test system: 786-0
TK-10 = test system: TK-10
MDA-MB-231 = test system: MDA-MB-231
SR = test system: SR
A498 = test system: A498
K562 = test system: K562
RPMI-8226 = test system: RPMI-8226
LOX IMVI = test system: LOX IMVI
SF-539 = test system: SF-539
Hs-578T = test system: Hs-578T
NCI-H23 = test system: NCI-H23
T47D = test system: T47D
DU-145 = test system: DU-145
SNB-78 = test system: SNB-78
DLD-1 = test system: DLD-1
KM-20L2 = test system: KM-20L2

SMILES	GI50 (CCRF-CEM)	GI50 (SK-OV-3)	GI50 (PC-3)	GI50 (MOLT-4)	GI50 (786-0)	GI50 (TK-10)	GI50 (MDA-MB-231)	GI50 (SR)	GI50 (A498)	GI50 (K562)	GI50 (RPMI-8226)	GI50 (LOX IMVI)	GI50 (SF-539)	GI50 (Hs-578T)	GI50 (NCI-H23)	GI50 (T47D)	GI50 (DU-145)	GI50 (SNB-78)	GI50 (DLD-1)	GI50 (KM-20L2)
CCc1c(O)c2c(c(O)c1C(C)=O)C(=O)c1c(cc(O)c(C(=O)O)c1C(=O)O)C2=O	> 100 µM (inactive)	> 100 µM (inactive)	> 100 µM (inactive)	> 100 µM (inactive)	> 100 µM (inactive)	> 100 µM (inactive)	> 100 µM (inactive)	> 100 µM (inactive)	> 100 µM (inactive)	> 100 µM (inactive)	> 100 µM (inactive)	> 100 µM (inactive)	> 100 µM (inactive)	> 100 µM (inactive)	> 100 µM (inactive)	> 100 µM (inactive)	> 100 µM (inactive)			
Cc1c2cnccc2c(C)c2c1c1ccccc1n2CC1CO1 (stereo unspecified)	0.0389 µM (active)	2.53 µM (inactive)		0.0213 µM (active)					0.247 µM (active)	0.859 µM (active)	0.883 µM (active)	0.393 µM (active)	1.21 µM (inactive)		0.422 µM (active)			1.83 µM (inactive)	1.55 µM (inactive)	1.3 µM (inactive)
COC(=O)c1cccc(N[C@@H]2c3cc4c(cc3C(c3cc(OC)c(O)c(OC)c3)[C@H]3C(=O)OCC32)OCO4)c1 (stereo partly specified)	0.248 µM (active)	2.86 µM (inactive)		0.0328 µM (active)					0.635 µM (active)	0.902 µM (active)	1.37 µM (inactive)	0.859 µM (active)	0.528 µM (active)		0.63 µM (active)			3.67 µM (inactive)	1.89 µM (inactive)	2.75 µM (inactive)
CSc1nc2c(c(N3CCOCC3)n1)C(O)n1c(nc3ccccc31)S2 (stereo unspecified)	21.1 µM (inactive)	96.2 µM (inactive)	37.2 µM (inactive)	> 100 µM (inactive)	44.3 µM (inactive)	47.5 µM (inactive)	50.2 µM (inactive)	51.2 µM (inactive)	97.1 µM (inactive)		4.72 µM (inactive)	> 100 µM (inactive)	3.8 µM (inactive)	23.7 µM (inactive)	67.8 µM (inactive)	25.9 µM (inactive)	> 100 µM (inactive)			
CC(Cc1ccccc1)Nc1ncnc2c1ncn2C1OC(CO)CC1O (stereo unspecified)	> 100 µM (inactive)	3.71 µM (inactive)	> 100 µM (inactive)	> 100 µM (inactive)	> 100 µM (inactive)	> 100 µM (inactive)	> 100 µM (inactive)		> 100 µM (inactive)	> 100 µM (inactive)	> 100 µM (inactive)	> 100 µM (inactive)		58.7 µM (inactive)	> 100 µM (inactive)	> 100 µM (inactive)	> 100 µM (inactive)			
NC(C/C=C/P(=O)(O)O)C(=O)O (stereo unspecified)	> 100 µM (inactive)	> 100 µM (inactive)	> 100 µM (inactive)	> 100 µM (inactive)		> 100 µM (inactive)	> 100 µM (inactive)	> 100 µM (inactive)		> 100 µM (inactive)		> 100 µM (inactive)	> 100 µM (inactive)	> 100 µM (inactive)	> 100 µM (inactive)	> 100 µM (inactive)	> 100 µM (inactive)			
CC(C)(C)OC(=O)NC(Cc1ccccc1)C(=O)N1CCCC1C(N)=O (stereo not drawn) (Boc-Phe-Pro-NH2; configuration not given here)	> 100 µM (inactive)	> 100 µM (inactive)	> 100 µM (inactive)	> 100 µM (inactive)		> 100 µM (inactive)	> 100 µM (inactive)	> 100 µM (inactive)		> 100 µM (inactive)	> 100 µM (inactive)	> 100 µM (inactive)				> 100 µM (inactive)	> 100 µM (inactive)			
CN1CCC(C(O)(c2ccccc2)c2ccc(Br)cc2)CC1 (stereo unspecified)	30.5 µM (inactive)	32.7 µM (inactive)	22.2 µM (inactive)	23.1 µM (inactive)	14.4 µM (inactive)	25.9 µM (inactive)	14.7 µM (inactive)	17.5 µM (inactive)		16.7 µM (inactive)	17.3 µM (inactive)	15.8 µM (inactive)	17.6 µM (inactive)	23.8 µM (inactive)	46.9 µM (inactive)	23 µM (inactive)	81.5 µM (inactive)			
CCCN(CCC)c1cc2c(cc1F)c(=O)c(C(=O)O)cn2-c1ccc(N2CCN(C)CC2)cn1	17.6 µM (inactive)	14.3 µM (inactive)	19 µM (inactive)	16.2 µM (inactive)	15.8 µM (inactive)	10.4 µM (inactive)	13.5 µM (inactive)	15.7 µM (inactive)	19.8 µM (inactive)	17.8 µM (inactive)	17.7 µM (inactive)	3 µM (inactive)	17.1 µM (inactive)	17 µM (inactive)	16.7 µM (inactive)	17 µM (inactive)	19.5 µM (inactive)			
